Reference: patent US5324725A, “7-fused 2-(piperazinoalkyl) indole derivatives, intermediates and compositions thereof” (Kali-Chemie Pharma GmbH, priority 1991, dated 1994)

Biological target: T1, 5-lipoxygenase (Mus musculus, UniProt P48999)
T1 construct: A cell suspension containing peritoneal cells of male mice 8-10 weeks old was obtained; endogenous in cells; host or cells: mouse peritoneal macrophages (male mice 8-10 weeks old), zymosan-stimulated
T1 sequence (P48999 1-674): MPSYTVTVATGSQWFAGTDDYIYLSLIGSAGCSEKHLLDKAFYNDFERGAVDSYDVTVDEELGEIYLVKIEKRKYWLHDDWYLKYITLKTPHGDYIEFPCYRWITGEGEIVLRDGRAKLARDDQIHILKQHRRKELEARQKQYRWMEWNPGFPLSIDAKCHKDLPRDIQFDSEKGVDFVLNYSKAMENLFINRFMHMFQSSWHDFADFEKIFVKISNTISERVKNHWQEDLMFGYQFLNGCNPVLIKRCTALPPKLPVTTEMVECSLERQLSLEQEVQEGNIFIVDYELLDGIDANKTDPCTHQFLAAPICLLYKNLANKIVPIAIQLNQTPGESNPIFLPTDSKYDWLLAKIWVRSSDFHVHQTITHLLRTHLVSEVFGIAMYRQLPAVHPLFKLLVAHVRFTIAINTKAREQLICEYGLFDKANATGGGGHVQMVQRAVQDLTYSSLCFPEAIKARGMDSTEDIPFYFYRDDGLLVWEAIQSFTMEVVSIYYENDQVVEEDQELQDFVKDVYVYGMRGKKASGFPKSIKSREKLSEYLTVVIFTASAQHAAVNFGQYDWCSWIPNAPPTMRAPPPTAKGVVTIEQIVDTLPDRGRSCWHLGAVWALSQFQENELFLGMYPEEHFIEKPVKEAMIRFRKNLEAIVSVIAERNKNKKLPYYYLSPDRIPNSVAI
Experiment: 5-lipoxygenase inhibition: release of LTC4 from zymosan-stimulated mouse peritoneal macrophage cells
Assay type: cell-based
Details: 10^-5 mol/l, read-out: In vitro % inhibition effect on the release of LTC4
Excerpt: 5. In vitro determination of cyclooxygenase inhibition and 5-lipoxygenase inhibition.
After activation of the cell, arachidonic acid contained in cell membranes is metabolized in two ways. Leukotrienes, inter alia leukotriene C4, are formed under the action of the enzyme 5-lipoxygenase (5-LO), and prostanoids are formed under the action of the enzyme cyclooxygenase (CO). In in vitro systems, the metabolites are secreted from the cell.
To investigate the cyclooxygenase-inhibiting and the 5-lipoxygenase-inhibiting properties, the inhibitory effect of the test substances on the biosynthesis of the arachidonic acid derivatives leukotriene C4 (LTC4) and 6-ketoprostaglandin F1 α (6-keto-PGF1 α) is determined in vitro on mouse peritoneal macrophage cells. This was accomplished by determining the LTC4 and 6-keto-PGF1 α contents in a culture medium of mouse peritoneal macrophage cells by zymosan stimulation as described by Scott et al. (J. Exp. Med. 152 (1980), 324-335) and by Fradin et al. (Prostaglandins, 33 (1987), 579-589).
A cell suspension containing peritoneal cells of male mice 8-10 weeks old was obtained in a known manner. A commercially available cell culture solution (RPMI 1640 from Messrs. Gibco) was used to which heparin (I0 international units/ml) and antibiotics were added according to the recipe of Bonney et al. (Biochem. J. 176 (1978) 422-433). The cell suspension was adjusted to a cell concentration of 10^6 cells per ml and distributed uniformly on titer plates containing […] (wells). These were kept for two hours in a humidified incubator filled with air enriched with 7% CO2. Cells not adhering to the titer cell walls were then removed by washing. The remaining macrophage cells adhering to the walls were incubated for about 12 hours in a suspension medium to which 0.1% bovine serum albumin (BSA) were added. The suspension medium was then replaced by a Hanks balanced salt solution (HBSS) containing 10 mM Hepes (hydroxyethyl-piperazinoethanesulfonic acid), to which a 0.1% strength solution of the test substances in aqueous, 1% strength dimethylformamide or only the solvent had been added. After 15 minutes the arachidonic acid metabolism was stimulated by adding 10 particles of zymosan (=glycoproteinmixture, isolated from cell walls of beer yeast, Saccharomyces cerevisiae, manufactured by Sigma Chemical Co., Munich) per titer cell. After 2 hours, samples of each of the supernatant liquids were investigated for their 6-keto-PGF1 α and LTC4 contents by means of an enzyme immunoassay (EIA) carried out by the method of Pradelles et al. (Analytical Chem. 57 (1985), 1170-1173). The determination of LTC4 and the determination of 6-keto-PGF1 α were each carried out in comparison with a comparative scale on suitable dilutions of the samples (1:50 to 1:250 for the LTC4 determination and 1:250 to 1:1250 for the 6-keto-PGF1 α determination). To determine the inhibitory effect of a 10^-5 molar concentration of the compounds, the amount of reference eicosanoids was determined and the inhibitory effect was calculated from this in % inhibition compared to the measurements of the zymosan controls.

Row | SMILES | inhibition at 10 µM [%]
1 | Cc1ccnc(N2CCN(CCc3c(-c4ccc(O)cc4)n4c5c(cccc35)CCC4)CC2)c1 [Example 8, 2-(4-hydroxyphenyl)-1-{2-[4-(4-methylpyridin-2-yl)piperazin-1-yl]ethyl}-5,6-dihydro-4H-pyrrolo[3,2,1-ij]quinoline] | 99
2 | C=CCCC1CCc2cccc3c(CCN4CCN(c5cc(C)ccn5)CC4)c(C)n1c23 (centres unmarked) [Example 62] | 94
3 | CCCCCCCC1CCc2cccc3c(CCN4CCN(c5cc(C)ccn5)CC4)c(C)n1c23 (centres unmarked) [Example 4, 4-n-heptyl-5,6-dihydro-2-methyl-1-{2-[4-(4-methylpyridin-2-yl)piperazin-1-yl]ethyl}-4H-pyrrolo[3,2,1-ij]-quinoline] | 44
4 | CCCCC1CCc2cc(C(=O)C(C)C)cc3c(CCN4CCN(c5cc(C)ccn5)CC4)c(C)n1c23 (centres unmarked) [Example 23, 4-n-Butyl-5,6-dihydro-8-(2-methyl-1-oxopropyl)-2-methyl-1-{2-[4-(4-methylpyridin-2-yl)piperazin-1-yl]ethyl}-4H-pyrrolo[3,2,1-ij]quinoline] | 94
5 | CC(C)=Cc1cc2c3c(c1)c(CCN1CCN(c4cc(C)ccn4)CC1)c(C)n3CCC2 [Example 26, 5,6-Dihydro-2-methyl-8-(2-methylprop-1-enyl)-1-{2-[4-(4-methylpyridin-2-yl)piperazin-1-yl]ethyl}-4H-pyrrolo[3,2,1-ij]quinoline] | 89
6 | Cc1c(CCN2CCN(c3ccc(Br)cn3)CC2)c2cccc3c2n1CCC3 [Example 43] | 24
7 | Cc1ccnc(N2CCN(CCc3c(C)n4c5c(cccc35)CC4C)CC2)c1 (centres unmarked) [Example 33] | 4
8 | CCCCC1CCc2cc(OC)cc3c(CCN4CCN(c5cc(C)ccn5)CC4)c(C)n1c23 (centres unmarked) [Example 63] | 98
9 | CC(=O)c1cc2c3c(c1)c(CCN1CCN(c4cc(C)ccn4)CC1)c(C)n3CCC2 [Example 67] | 66
10 | Cc1ccnc(N2CCN(CCc3c(C)n4c5c(cc(N)cc35)CCC4)CC2)c1 [Example 20, 8-Amino-5,6-dihydro-2-methyl-1-{2-[4-(4-methylpyridin-2-yl)piperazin-1-yl]ethyl}-4H-pyrrolo[3,2,1-ij]quinoline] | 0
11 | CCCCC1CCc2cc(O)cc3c(CCN4CCN(c5cc(C)ccn5)CC4)c(C)n1c23 (centres unmarked) [Example 76] | 75
12 | Cc1ccnc(N2CCN(CCc3c(C)n4c5c(cc(CC(C)C)cc35)CCC4)CC2)c1 [Example 21, 5,6-Dihydro-2-methyl-8-(2-methylpropyl)-1-{2-[4-(4-methylpyridin-2-yl)piperazin-1-yl]ethyl}-4H-pyrrolo[3,2,1-ij]quinoline] | 95
13 | CNc1cc2c3c(c1)c(CCN1CCN(c4cc(C)ccn4)CC1)c(C)n3CCC2 [Example 80] | 39
14 | Cc1ccnc(N2CCN(CCc3c(CO)n4c5c(cccc35)CCC4)CC2)c1 [Example 16, 5,6-dihydro-2-hydroxymethyl-1-{2-[4-(4-methylpyridin-2-yl)piperazin-1-yl]ethyl}-4H-pyrrolo[3,2,1-ij]quinoline] | 17
15 | Cc1ccnc(N2CCN(CCc3c(C)n4c5c(ccc(C(=O)C(C)C)c35)SCC4)CC2)c1 [Example 91] | 81

Next, values leading:

Row | inhibition at 10 µM [%] | SMILES
16 | 51 | Cc1ccnc(N2CCN(CCc3c(C)n4c5c(c(C(O)C(C)C)ccc35)SCC4)CC2)c1 (centres unmarked) [Example 89]
17 | 69 | Cc1ccnc(N2CCN(CCc3c(C)n4c5c(cc(NC(=O)c6ccccc6)cc35)CCC4)CC2)c1 [Example 25, 8-Benzoylamino-5,6-dihydro-2-methyl-1-{2-[4-(4-methylpyridin-2-yl)piperazin-1-yl]-ethyl}-4H-pyrrolo[3,2,1-ij]quinoline]
18 | 23 | Cc1ccnc(N2CCN(CCc3c(C)n4c5c(cccc35)CCC4C3CCCCC3)CC2)c1 (centres unmarked) [Example 87]
19 | 90 | CCCCC1CCc2cccc3c(CCN4CCN(c5cc(C)ccn5)CC4)c(C)n1c23 (centres unmarked) [Example 73, 4-n-butyl-5,6-dihydro-2-methyl-1-{2-[4-(4-methylpyridin-2-yl)piperazin-1-yl]ethyl}-4H-pyrrolo[3,2,1-ij]quinoline]
20 | 13 | Cc1c(CCN2CCN(c3ccccn3)CC2)c2cccc3c2n1CCC3 [Example 37]
21 | 98 | Cc1ccnc(N2CCN(CCc3c(C)n4c5c(cccc35)CCC4c3ccc(O)cc3)CC2)c1 (centres unmarked) [Example 61]
22 | 89 | COc1ccc(C2CCc3cc(OC)cc4c(CCN5CCN(c6cc(C)ccn6)CC5)c(C)n2c34)cc1 (centres unmarked) [Example 65]
23 | 66 | Cc1ccnc(N2CCN(CCc3c(C)n4c5c(ccc(C(O)C(C)C)c35)SCC4)CC2)c1 (centres unmarked) [Example 90]
24 | 56 | COc1ccc(-c2c(CCN3CCN(c4cc(C)ccn4)CC3)c3cccc4c3n2CCC4)cc1 [Example 7, 2-(4-methoxy-phenyl)-1-{2-[4-(4-methylpyridin-2-yl)piperazin-1-yl]ethyl}-5,6-dihydro-4H-pyrrolo[3,2,1-ij]quinoline]
25 | 55 | Cc1ccnc(N2CCN(CCc3c(C)n4c5c(cc(C(O)C(C)C)cc35)CCC4)CC2)c1 (centres unmarked) [Example 19, 5,6-Dihydro-8-(1-hydroxy-2-methylpropyl)-2-methyl-1-{2-[4-(4-methylpyridin-2-yl)piperazin-1-yl]ethyl}-4H-pyrrolo-[3,2,1-ij]quinoline]
26 | 74 | Cc1ccnc(N2CCN(CCc3c(C)n4c5c(cc(Cc6ccccc6)cc35)CCC4)CC2)c1 [Example 77]
27 | 62 | Cc1ccnc(N2CCN(CCc3c(C)n4c5c(cc(Br)cc35)CCC4)CC2)c1 [Example 9, 8-Bromo-2-methyl-1-{2-[4-(4-methylpyridin-2-yl)piperazin-1-yl]ethyl}-5,6-dihydro-4H-pyrrolo[3,2,1-ij]quinoline]
28 | 62 | Cc1ccnc(N2CCN(CC(O)c3c(C4CCCCC4)n4c5c(cccc35)CCC4)CC2)c1 (centres unmarked) [Example 85]
29 | 33 | Cc1ccnc(N2CCN(CCc3c(C)n4c5c(cc(C(=O)c6ccccc6)cc35)CCC4)CC2)c1 [Example 66]
30 | 61 | Cc1ccnc(N2CCN(CCc3c(C)n4c5c(cc(C(=O)C(C)C)cc35)CCC4)CC2)c1 [Example 27, 5,6-dihydro-2-methyl-8-(2-methyl-1-oxopropyl)-1-{2-[4-(4-methylpyridin-2-yl)piperazin-1-yl]ethyl}-4H-pyrrolo-[3,2,1-ij]quinoline]
31 | 71 | Cc1ccnc(N2CCN(CCc3c(C)n4c5c(c(Cl)cc(Cl)c35)OCC4)CC2)c1 [Example 79]
32 | 97 | Cc1ccnc(N2CCN(CCc3c(-c4ccc(OCCCCO)cc4)n4c5c(cccc35)CCC4)CC2)c1 [Example 12, 2-[4-(4-Hydroxybutyloxy)-phenyl]-1-{2-[4-(4-methylpyridin-2-yl)piperazin-1-yl]ethyl}-5,6-dihydro-4H-pyrrolo[3,2,1-ij]quinoline]
33 | 80 | COc1ccc(C2CCc3cccc4c(CCN5CCN(c6cc(C)ccn6)CC5)c(C)n2c34)cc1 (centres unmarked) [Example 59]
34 | 34 | Cc1ccnc(N2CCN(CCc3c(C)n4c5c(cc(C(=O)C6CCCCC6)cc35)CCC4)CC2)c1 [Example 83]
35 | 29 | Cc1ccnc(N2CCN(CCc3c(C)n4c5c(cc(N(C)C)cc35)CCC4)CC2)c1 [Example 81]
